Converted amounts (≈) assume the structure as drawn.
How the values were obtained:
[1] = tested on: MDR E. coli B2; assay: Checkerboard assay with LI14; format: cell-based, Escherichia coli; settings: for FIC index: antibiotic in combination with LI14, checkerboard 8 × 8, 18 h, ≤0.5 = synergy; for Potentiation: antibiotic potentiation in the presence of ¼ MIC of LI14; for MICa of antibiotic: in the absence of LI14; for MICb of antibiotic: in the presence of ¼ MIC of LI14
Description: (§1) Through checkerboard assay using two-fold serially diluted drugs (8 × 8 matrix), we evaluated the synergistic effects of LI14 with different mechanisms of antibiotics. The absorbance of cultures at 600 nm was determined by a Microplate reader after 18 h of incubation with (1.5 × 10^6 CFUs/mL) bacterial suspension. The FIC index (FICI) was calculated by performing two biological replicates for each combination. The formula is as follows: FIC index = FICIa + FICIb = MICab/MICa + MICba/Mb. An FIC index of ≤0.5 indicates synergy.
(§2) a/bMICs of antibiotics in the absence or presence of ¼ MIC of LI14.
(§3) cDegree of antibiotics potentiation in the presence of ¼ MIC of LI14.
(§4) –, none of potentiation activity.

[2] = tested on: sensitive E. coli ATCC 25922; assay: Checkerboard assay with LI14; format: cell-based, Escherichia coli; settings: for FIC index: antibiotic in combination with LI14, checkerboard; for MICa of antibiotic: in the absence of LI14
Description: as §1, §2, §3, §4

[3] = tested on: MRSA T144; assay: Checkerboard assay with LI14; format: cell-based, Staphylococcus aureus
Description: as §1, §2, §3, §4

[4] = tested on: E. coli ATCC 25922; assay: Resistance development study, serial passages; format: cell-based, Escherichia coli; settings: 80 serial passages at sub-inhibitory concentration (0.5-fold MIC)
Description: (§5) The ability of LI14 peptide to induce resistance was studied as previously described. Resistance to the therapeutically important drugs rifampicin and ciprofloxacin was measured using S. aureus ATCC 29213 and E. coli ATCC 25922 as test strains. The middle and final MICs were monitored after eighty such serial passages exposed to the tested medicines (0.5-fold MIC), and the fold change in MIC increase was recorded.

[5] = tested on: MRSA T144; assay: microbe, parasite or virus in culture; format: cell-based, Staphylococcus aureus; settings: Staphylococcus aureus; MRSA T144; MHB, 16-18 h, 37 °C; read-out: MIC
Description: (§6) An antimicrobial activity study was conducted on all peptides against a panel of laboratory bacteria, including ATCC source and clinical isolates with resistance determinants. According to CLSI2021 guidelines, we tested the minimum inhibitory concentrations (MICs) of peptides using standard broth micro-dilutions. Briefly, bacteria grown to exponential phase were diluted in 1:1000 to MHB, subsequently, equivalent amounts of bacterial suspension (1.5 × 10^6 CFUs/mL) were mixed with different concentrations of peptides in a sterilized 96-well microtiter plate (Corning).

[6] = tested on: S. aureus ATCC 29213; assay: microbe, parasite or virus in culture; format: cell-based, Staphylococcus aureus; settings: Staphylococcus aureus, ATCC29213; S. aureus ATCC 29213; MHB, 16-18 h, 37 °C; read-out: MIC
Description: as §6

[7] = tested on: MRSA 1518; assay: microbe, parasite or virus in culture; format: cell-based, Staphylococcus aureus; settings: Staphylococcus aureus; MRSA 1518; MHB, 16-18 h, 37 °C; read-out: MIC
Description: as §6

[8] = tested on: MRSA 1530; assay: microbe, parasite or virus in culture; format: cell-based, Staphylococcus aureus; settings: Staphylococcus aureus; MRSA 1530; MHB, 16-18 h, 37 °C; read-out: MIC
Description: as §6

[9] = tested on: S. aureus 215 (cfr + LZD^R); assay: MIC broth microdilution; format: cell-based, Staphylococcus aureus; settings: Staphylococcus aureus
Description: as §6

[10] = tested on: S. aureus G16 (RIF^R); assay: MIC broth microdilution; format: cell-based, Staphylococcus aureus; settings: Staphylococcus aureus
Description: as §6

[11] = tested on: E. faecalis 1F-1; assay: microbe, parasite or virus in culture; format: cell-based; settings: Enterococcus faecalis, 1F1; E. faecalis 1F-1; MHB, 16-18 h, 37 °C; read-out: MIC
Description: as §6

[12] = tested on: E. faecalis A4 (VRE, VanA); assay: microbe, parasite or virus in culture; format: cell-based; settings: Enterococcus faecalis; E. faecalis A4 (VRE, VanA); MHB, 16-18 h, 37 °C; read-out: MIC
Description: as §6

[13] = tested on: S. enteritidis ATCC 13076; assay: microbe, parasite or virus in culture; format: cell-based; settings: Salmonella enterica; S. enteritidis ATCC 13076; MHB, 16-18 h, 37 °C; read-out: MIC
Description: as §6

[14] = tested on: E. faecium 5F-10; assay: microbe, parasite or virus in culture; format: cell-based, Enterococcus faecium; settings: Enterococcus faecium, 5F10; E. faecium 5F-10; MHB, 16-18 h, 37 °C; read-out: MIC
Description: as §6

[15] = tested on: E. coli ATCC 25922; assay: microbe, parasite or virus in culture; format: cell-based, Escherichia coli; settings: Escherichia coli, ATCC25922; E. coli ATCC 25922; MHB, 16-18 h, 37 °C; read-out: MIC
Description: as §6

[16] = tested on: E. coli B2 (blaNDM-5 + mcr-1); assay: microbe, parasite or virus in culture; format: cell-based, Escherichia coli; settings: Escherichia coli; E. coli B2 (blaNDM-5 + mcr-1); MHB, 16-18 h, 37 °C; read-out: MIC
Description: as §6

[17] = tested on: E. coli 1F28 (tet(X4)); assay: microbe, parasite or virus in culture; format: cell-based, Escherichia coli; settings: Escherichia coli; E. coli 1F28 (tet(X4)); MHB, 16-18 h, 37 °C; read-out: MIC
Description: as §6

[18] = tested on: E. coli B3-1 (tet(X4)); assay: microbe, parasite or virus in culture; format: cell-based, Escherichia coli; settings: Escherichia coli; E. coli B3-1 (tet(X4)); MHB, 16-18 h, 37 °C; read-out: MIC
Description: as §6

[19] = tested on: E. coli C3 (blaNDM-1); assay: microbe, parasite or virus in culture; format: cell-based, Escherichia coli; settings: Escherichia coli; E. coli C3 (blaNDM-1); MHB, 16-18 h, 37 °C; read-out: MIC
Description: as §6

[20] = tested on: E. coli CP131 (mcr-3); assay: microbe, parasite or virus in culture; format: cell-based, Escherichia coli; settings: Escherichia coli
Description: as §6

[21] = tested on: E. coli G6 (blaNDM-5); assay: microbe, parasite or virus in culture; format: cell-based, Escherichia coli; settings: Escherichia coli; E. coli G6 (blaNDM-5); MHB, 16-18 h, 37 °C; read-out: MIC
Description: as §6

[22] = tested on: E. coli G92 (mcr-1); assay: microbe, parasite or virus in culture; format: cell-based, Escherichia coli; settings: Escherichia coli
Description: as §6

[23] = tested on: A. baumannii ATCC 19609; assay: microbe, parasite or virus in culture; format: cell-based, Acinetobacter baumannii; settings: Acinetobacter baumannii, ATCC19609; A. baumannii ATCC 19609; MHB, 16-18 h, 37 °C; read-out: MIC
Description: as §6

[24] = tested on: A. baumannii C222 (tet(X6)); assay: microbe, parasite or virus in culture; format: cell-based, Acinetobacter baumannii; settings: Acinetobacter baumannii
Description: as §6

[25] = tested on: P. aeruginosa PA14; assay: microbe, parasite or virus in culture; format: cell-based, Pseudomonas aeruginosa; settings: Pseudomonas aeruginosa; P. aeruginosa PA14; MHB, 16-18 h, 37 °C; read-out: MIC
Description: as §6

[26] = tested on: K. pneumoniae ATCC 700603; assay: microbe, parasite or virus in culture; format: cell-based, Klebsiella pneumoniae; settings: Klebsiella pneumoniae, ATCC700603; K. pneumoniae ATCC 700603; MHB, 16-18 h, 37 °C; read-out: MIC
Description: as §6

[27] = tested on: K. pneumoniae D120 (mcr-8); assay: microbe, parasite or virus in culture; format: cell-based, Klebsiella pneumoniae; settings: Klebsiella pneumoniae; K. pneumoniae D120 (mcr-8); MHB, 16-18 h, 37 °C; read-out: MIC
Description: as §6

[28] = tested on: P. cibarius HNCF44W (blaNDM-1 + tet(X6)); assay: organism not typed; format: cell-based; settings: P. cibarius HNCF44W (blaNDM-1 + tet(X6)); MHB, 16-18 h, 37 °C; read-out: MIC
Description: as §6

[29] = tested on: E. coli DH5α (PUC19); assay: MIC broth microdilution; format: cell-based, Escherichia coli; settings: Escherichia coli; engineered E. coli DH5α (PUC19); MHB, 16-18 h, 37 °C; read-out: MIC
Description: as §6

[30] = tested on: E. coli DH5α (PUC19-mcr-1); assay: MIC broth microdilution; format: cell-based, Escherichia coli; settings: Escherichia coli
Description: as §6

[31] = tested on: E. coli DH5α (PUC19-tet(X4)); assay: MIC broth microdilution; format: cell-based; settings: Escherichia coli
Description: as §6

[32] = tested on: S. aureus ATCC 29213; assay: Resistance development study, serial passages; format: cell-based, Staphylococcus aureus; settings: 80 serial passages at sub-inhibitory concentration (0.5-fold MIC)
Description: as §5

[33] = tested on: E. coli B2; assay: Neutropenic mouse thigh infection model; format: in vivo, CD-1 mice; settings: RIF 20 mg/kg i.p., 48 h
Description: Female CD-1 mice (n = 6 biologically independent animals per group) were first given cyclophosphamide (two consecutive injections of 150 and 100 mg kg^−1 at 4 and 1 day before infection) to construct neutropenia models. The mice’s right thighs were then injected with 100 μL MRSA T144 or E. coli B2 suspensions (10^5 CFUs per mouse). Post-infection of 1 h, 100 μL LI14 peptide (10 or 20 mg/kg), ampicillin/rifampicin (20 mg/kg) or a combination of LI14 with ampicillin/ rifampicin (10 + 20 mg/kg) were given by intraperitoneal injection. All mice were euthanized 48 h after drug administration, and right thigh muscle tissue was removed aseptically, homogenized, serially diluted, and plated on MHA to qualify bacterial loads after overnight incubation at 37 °C.

[34] = serum versus MHB broth medium; cited from earlier work
Source text: Amphiphilicity, ɑ-helicity and appropriate peptide chain length are key factors for AMP activity.

[35] = in the presence of ¼ MIC of LI14

## O=C(O)c1cn(C2CC2)c2cc(N3CCNCC3)c(F)cc2c1=O [Ciprofloxacin]
[1]
  FIC index: 0.188
  Potentiation: 8 fold
  MICa of antibiotic: 32 µg/mL
  MICb of antibiotic: 4 µg/mL
[2]
  FIC index: 1.5
  MICa of antibiotic: 0.008 µg/mL
[2]; [35]
  MICb of antibiotic: 0.008 µg/mL
[3]; antibiotic in combination with LI14, checkerboard
  FIC index: 2.0
[3]; in the absence of LI14
  MICa of antibiotic: 2 µg/mL
[3]; [35]
  MICb of antibiotic: 2 µg/mL
[4]
  Increase in MIC after serial passages: 256 fold

## C[C@@H](O)[C@H]1C(=O)N2C(C(=O)O)=C(S[C@@H]3CN[C@H](C(=O)N(C)C)C3)[C@H](C)[C@H]12 [Meropenem]
[5]
  MIC: 1 µg/mL (≈ 2.61 µM)
[6]
  MIC: < 0.0625 µg/mL
[7]
  MIC: 0.25 µg/mL (≈ 0.652 µM)
[8]
  MIC: 0.25 µg/mL (≈ 0.652 µM)
[9]
  MIC: 1 µg/mL (≈ 2.61 µM)
[10]
  MIC: 2 µg/mL (≈ 5.22 µM)
[11]
  MIC: 8 µg/mL (≈ 20.9 µM)
[12]
  MIC: > 64 µg/mL
[13]
  MIC: < 0.0625 µg/mL
[14]
  MIC: 8 µg/mL (≈ 20.9 µM)
[15]
  MIC: 0.03 µg/mL (≈ 0.0782 µM)
[16]
  MIC: 32 µg/mL
[17]
  MIC: 0.25 µg/mL (≈ 0.652 µM)
[18]
  MIC: < 0.0625 µg/mL
[19]
  MIC: 8 µg/mL (≈ 20.9 µM)
[20]
  MIC: < 0.125 µg/mL
[21]
  MIC: 64 µg/mL (≈ 167 µM)
[22]
  MIC: < 0.125 µg/mL
[23]
  MIC: < 0.0625 µg/mL
[24]
  MIC: < 0.125 µg/mL
[25]
  MIC: 32 µg/mL (≈ 83.4 µM)
[26]
  MIC: < 0.0625 µg/mL
[27]
  MIC: < 0.0625 µg/mL
[28]
  MIC: > 16 µg/mL
[29]
  MIC: < 0.125 µg/mL
[30]
  MIC: < 0.125 µg/mL
[31]
  MIC: < 0.125 µg/mL
[1]
  FIC index: 2
  MICa of antibiotic: 32 µg/mL
  MICb of antibiotic: 32 µg/mL

## CO[C@H]1/C=C/O[C@@]2(C)Oc3c(C)c(O)c4c(O)c(c(/C=N/N5CCN(C)CC5)c(O)c4c3C2=O)NC(=O)/C(C)=C\C=C\[C@H](C)[C@H](O)[C@@H](C)[C@@H](O)[C@@H](C)[C@H](OC(C)=O)[C@@H]1C [Rifampicin]
[1]
  FIC index: < 0.078
  Potentiation: > 64 fold
  MICa of antibiotic: > 128 µg/mL
  MICb of antibiotic: 2 µg/mL
[2]
  FIC index: < 0.078
  MICa of antibiotic: > 128 µg/mL
[2]; [35]
  MICb of antibiotic: 2 µg/mL
  Potentiation: > 64 fold
[32]
  Increase in MIC after serial passages: 1024 fold
[33]; animal 1
  Bacterial load in thigh: 6.89 Log10CFUs/thigh
[33]; animal 2
  Bacterial load in thigh: 6.97 Log10CFUs/thigh
[33]; animal 3
  Bacterial load in thigh: 7.76 Log10CFUs/thigh
[33]; animal 4
  Bacterial load in thigh: 7.96 Log10CFUs/thigh
[33]; animal 5
  Bacterial load in thigh: 6.83 Log10CFUs/thigh
[33]; animal 6
  Bacterial load in thigh: 6.97 Log10CFUs/thigh

## LL-37: human AMP LL-37, previously reported peptide antibiotic
[34]
  Change of MIC value in serum: greater than 128 fold
